Where “and” joins values, the source holds several entries; their conditions need not be identical. Identical values can stand only once. Like-named read-outs stand apart in the source and are kept apart here.
Key:
[1] = system: hamster whole blood (Collagen 2.5 μg/ml); assay: Whole blood aggregation in hyperlipidemic hamsters (ex vivo), collagen induced; settings: Table 2 summary
mice [2] = assay: Tail bleeding time in mice; type: in vivo; settings: for Bleeding Time in mice: Table 2 summary; for prolongation in bleeding time: 30 μM/kg, 1 hr p.o. dosing
Procedure: Bleeding time in mice was evaluated by the method of Dejana et al, (Dejana E, Callioni A, Quintana A, Gaetano G. Bleeding time in laboratory animals. II—A comparison of different assay conditions in rats. […] The time elapsed from the tip incision to the stoppage of bleeding was determined as the bleeding time. The preferred compounds, aspirin (30 mg/kg) or vehicle was given orally 60 min prior to the tail incision in a group of 5 mice each.

hamster platelets = assay: Platelet adhesion on collagen coated surface (hyperlipidemic hamster model, ex vivo); type: in vivo, hamsters; settings: for Platelet adhesion hyperlipidemic hamsters: Table 2 summary; for platelet adhesion over collagen coated surface: hyperlipidemic hamsters, ex vivo
Procedure: Platelet adhesion to collagen was measured in polystyrene 96-well micro titer plates. Micro titer plates were coated with insoluble equine tendon native fibrillar type I collagen (Chrono-Log Corp. Havertown, USA), 2 μg/well in 5 mM acetic acid (Tandon N N, Ockenhouse C F, Greco […]. Adhesive functions of platelet lacking GPIV (CD36). Blood 1991; 78: 2809-13) overnight at 4° C. The unoccupied protein binding sites on the wells were blocked with 0.5% BSA in Tyrode's-HEPES buffer (136.7 mM NaCl, 13.8 mM NaHCO3. 0.36 mM NaH2PO4.H2O, 2.6 mM KCl, 1.0 mM MgCl2.6H2O, 5.5 mM glucose, pH 7.4) at room temperature for 1 hour, and then rinsed once with PBS. Washed platelets were suspended in the Tyrode's-HEPES buffer and added to the wells (2×10^7 cells/well) for 1 h at room temperature. After three washes with PBS, the number of adherent platelets was evaluated colorimetrically (Bellavite P., Andrioli G., Gizzo P., Arigliano P., Chirumbolo […] colorimetric method for the measurement of platelet adhesion in microtiter plates. Anal. Blochem. 1994; 216:444-450). Briefly, 150 μl of a 0.1 M citrate buffer (pH 5.4), containing 5 mM p-nitrophenyl phosphate and 0.1% TritonX-100 was added to the wells after washing. After incubation for 30 minutes at 25° C. in the absence of ambient light, colour was developed by the addition of 100 μl of 2N NaOH and the absorbance at 405 nm was read using a microplate reader (Powerware XS, Biotek, USA).

rats = assay: Arterio-venous shunt model in rats; type: in vivo; settings: for Arterio-venous shunt model in rat: Table 2 summary; for thrombus weight: rats, given 1 hr prior to shunt
Text: Rats were grouped into control, aspirin and test compound group, each group having six animals. Rats were anesthetized with urethane (1.25 g/kg). Cervical incision was made and carotid artery and its contra lateral jugular vein was exposed to prepare a shunt by using polyethylene tubes. Two 7 cm siliconized polyethylene tubes (0.5/1.0 mm inner/outer diameter) were linked to a central 6 cm silicon tube (1.0/1.5 mm, inner/outer diameter) containing a 5 cm silk thread (pre-weighed) and were filled with saline. The shunt assembly was cannulated between the jugular vein and contra-lateral carotid artery and blood was allowed to circulate through the shunt. Blood flow through the shunt was maintained for 10 minutes, subsequently the central part of the shunt was removed and silk thread having thrombus deposit was taken out and weighed. The thrombus adhered/deposited on thread was calculated by subtracting the wet weight of the silk thread. The standard drugs and test compounds were given 1 hr prior to the establishment of arterio-venous shunt (Tohti I, Tursun M, Umar A, Turdi S, Imin H, Moore N. Aqueous extracts of Ocimum basilicum L. (sweet basil) decrease platelet aggregation induced by ADP and thrombin in vitro and rats arterio-venous shunt thrombosis in vivo. Thrombosis Res. 2006; 118: 733-739).

mice [3] = assay: Collagen-epinephrine induced pulmonary thromboembolism in mice; type: in vivo; settings: Table 2 summary; how long protection lasts
Text: To assess the antithrombotic efficacy of Compounds, mice were divided into vehicle, aspirin and Compounds treated groups, and each group included ten animals. […] Results have been reported as percentage protection, which represents protection against collagen and epinephrine induced thrombosis and expressed as: Percent Protection=(1-([…]-number of animals paralyzed/dead in test compound-treated group; Pcontrol-number of animals paralyzed/dead in vehicle treated group. Collagen Epinephrine Induced Pulmonary Thromboembolism (FIG. 1): […]

in vivo = type: in vivo, rabbits; settings: for AUC / Cmax / MRT / Tmax: 20 mg/kg
Procedure: In-vivo pharmacokinetic parameters were generated in male NZ rabbits at a dose of 20 mg/kg by oral route of administration. The blood samples were drawn at 0.25, 0.5, 0.75, 1, 1.5, 2, 4, 6, 8, 10, 12, 18 and 24 hr post dose, processed and analyzed by Liquid Chromatography-Mass Spectrometry (LC-MS). Plasma concentration at different time points were plotted to give Plasma Concentration Time Profile and the data was fitted non-compartmentally using Win NonLin 5.1 version software and the estimates of pharmacokinetic parameters were derived with SD mean values. Maximum plasma concentration (Cmax), time to achieve maximum plasma concentration (tmax).

hyperlipidemic hamsters = assay: FeCl3 induced thrombosis in hyperlipidemic hamsters; type: in vivo; settings: for time to occlusion (TTO): HCHF fed hamsters
Procedure: HCHF treated hamsters were anesthetized by urethane (1.25 g/kg, i.p.). The carotid artery was carefully dissected and a pulsed Doppler Probe (DBF-120A-CPx, CBI-8000, Crystal Biotech. USA) was placed around it to record the blood flow velocity and potency of the blood vessels. The carotid artery thrombosis was induced by FeCl3 as follows: a square (1×1 mm) of Whatman Chromatography paper was immersed in 30% FeCl3 solution for 5 min and placed on the carotid artery as described earlier (Kurz K D, Main B W, Sandusky G E. Rat model of arterial thrombosis induced by ferric chloride. Thromb Res 1990; 60(4):269-80). Thrombosis was monitored as the reduction in carotid artery blood flow. The time at which the blood-flow velocity was decreased to zero was recorded as the total of occlusion of the vessel.

[4] = system: human platelet rich plasma (ADP induced aggregation); assay: ADP induced platelet aggregation, human platelet rich plasma (in vitro); type: cell-based
Procedure: The reaction was allowed to proceed for at least 5 min, and the extent of aggregation was expressed in light-transmission units (Ivandic B T, Schlick P, Starltz P, Kurz K, Katas H A, Giannitsis E. Determination of clopidogrel resistance by whole blood platelet aggregometry and inhibitors of the P2Y12 receptor. Clinical Chemistry 2006: 52:383-88).
The percentage of aggregation was calculated by using following formula: Percent Aggregation=A/B×100 Where, A is the number of division traversed by the label on chart in the presence of Inducer & B is the total number of divisions (80). Platelet Aggregation Studies (FIG. 3) a) Platelet Aggregation (Human, In Vitro) (FIG. 3a (i) (ii) (iii))

human α-thrombin = target: T1, human α-thrombin (Homo sapiens, UniProt P00734); assay: Amidolytic assay of thrombin activity (fluorogenic substrate); type: biochemical; settings: compound 1 at 300 μM and 1 mM after 15 min of substrate incubation
T1 construct: amidolytic activity of human α-thrombin using fluorogenic substrate

[5] = male, NZ, rabbit, in vivo, as stated in the summary text, read-out: tmax

Compound	Whole blood aggregation in hyperlipidemic hamsters [1]	Bleeding Time in mice (mice [2]) [fold]	Platelet adhesion hyperlipidemic hamsters (hamster platelets)	Arterio-venous shunt model in rat (rats)	Collagen-epinephrine induced thrombosis in mice (duration of effect) (mice [3])	AUC (in vivo; male NZ rabbits, oral) [ng·h/mL]	Cmax (in vivo; male NZ rabbits, oral)	MRT (in vivo; male NZ rabbits, oral) [h]	Tmax (in vivo; male NZ rabbits, oral) [h]	prolongation in bleeding time (mice [2])	time to occlusion (TTO) (hyperlipidemic hamsters)	effect on ADP induced platelet aggregation ([4]; concentration not given)	platelet adhesion over collagen coated surface (hamster platelets)	thrombin amidolytic activity (human α-thrombin)	prolonged systemic exposure (in vivo; as stated in the summary text)	Tmax (in vivo; [5]) [h]	Ferric chloride induced thrombosis in hyperlipidemic hamsters (hyperlipidemic hamsters; Table 2 summary)	effect on ADP induced platelet aggregation ([4]; up to 300 μM)	thrombus weight (rats)
1-(4-methylphenylmethyl)-5-oxo-{N-[(3-t-butoxycarbonyl-aminomethyl)]-piperidin-1-yl}-pyrrolidine-2-carboxamides [Compound 1]	Effective	2	Effective	Protective	Up to 18 hrs	–	–	–	–	–	–	–	–	–	–	–	–	–	–
Cc1ccc(CN2C(=O)CC[C@H]2C(=O)N2CCCC(CNC(=O)OC(C)(C)C)C2)cc1 (some centres unmarked) [Compound 1, 1-(4-methylphenylmethyl)-5-oxo-{N-[(3-t-butoxycarbonyl-aminomethyl)]-piperidin-1-yl}-pyrrolidine-2-carboxamides]	–	–	–	–	–	6524.15	947.02 ± 237.4 ng/mL	16.20	0.68	approximately 1.5 fold	remained ineffective	no effect	significant reduction	significant inhibitory effect	–	–	–	–	–
Cc1ccc(CN2C(=O)CC[C@H]2C(=O)N2CCC[C@@H](CNC(=O)OC(C)(C)C)C2)cc1 [Compound 6]	Effective	1.5	Effective	Protective	>24 h	874.8	149.49 ± 53.12 ng/mL	5.25	0.75	approximately 1.5 fold	significantly increased	no effect	significant inhibition	remained ineffective	more than 24 hrs	0.75 ± 0.144	Protective	did not exhibit any effect	reducing the thrombus weight significantly
Cc1ccc(CN2C(=O)CC[C@H]2C(=O)N2CCC[C@H](CNC(=O)OC(C)(C)C)C2)cc1 [Compound 7, (2S)-1-(4-methylphenylmethyl)-5-oxo-(3R)-{N-[(3-t-butoxycarbonyl-aminomethyl)]-piperidin-1-yl}-pyrrolidine-2-carboxamide]	No effect	1.5	No effect	Protective	<12 h	1112.81	112.81 ± 169.77 ng/mL and 112.40 ng/mL	16.20	8.67	approximately 1.5 fold	remained ineffective	no effect	no effect	actively attenuated	–	8.67 ± 0.66	–	did not exhibit any effect	reducing the thrombus weight significantly

— patent publication US9687480B2, “Chiral 1-(4-methylphenylmethyl)-5-oxo-{N-[(3-t-butoxycarbonyl-aminomethyl)]-piperidin-1-yl)-pyrrolidine as inhibitors of collagen induced platelet activation and adhesion” (Council of Scientific & Industrial Research, priority 2011, dated 2017)
